Measurements taken from patent US9580390B2, “Indazole compounds as kinase inhibitors and method of treating cancer with same” (University Health Network, priority 2011, dated 2017).

Assays:
human PLK4 = target: T1, human PLK4 (Homo sapiens, UniProt O00444); assay: PLK4 inhibition assay (indirect ELISA); assay type: biochemical; details: 15 μM ATP
T1 construct: amino terminal GST fusion of residues 1-391 of human PLK4; made in house; host or cells: E. coli
T1 sequence (O00444 1-391): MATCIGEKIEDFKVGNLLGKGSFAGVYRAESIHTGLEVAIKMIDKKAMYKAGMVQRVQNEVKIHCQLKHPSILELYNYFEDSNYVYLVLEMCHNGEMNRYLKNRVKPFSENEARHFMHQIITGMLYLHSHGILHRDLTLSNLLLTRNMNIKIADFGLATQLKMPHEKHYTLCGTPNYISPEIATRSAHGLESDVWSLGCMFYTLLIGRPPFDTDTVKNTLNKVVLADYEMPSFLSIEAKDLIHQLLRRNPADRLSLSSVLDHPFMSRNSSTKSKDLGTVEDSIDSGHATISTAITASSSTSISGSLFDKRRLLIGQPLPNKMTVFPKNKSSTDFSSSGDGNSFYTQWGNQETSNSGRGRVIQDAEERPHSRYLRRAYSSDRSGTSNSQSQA
Method in brief: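 Dephosphorylated GST-PLK4 (residues 1-391, E. coli; 4 nM) was preincubated 15 min with compound, then reacted 30 min with 15 μM ATP in HEPES pH 7.4, MgCl2, Brij 35 on MBP-coated plates. Phospho-MBP was detected by antibody/HRP ELISA at 450 nm; IC50 from 10-point titration by 4-parameter logistic fit, or single 10 μM % inhibition.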

Breast cancer cells = assay: Cancer cell line growth inhibition (SRB assay); assay type: cell-based; details: Homo sapiens; MDA-MB-468; read-out: Cancer Cell Line GI50 Range MDA-MB-468
TICs (Ovarian 2393A) = assay: Ovarian tumor-initiating cell growth inhibition (Alamar Blue); assay type: cell-based; details: 144 h; Ovarian 2393A TICs, 6 days; read-out: Tumor Initiating Cell GI50 Range Ovarain 2393A
human TTK = target: T2, human TTK (Homo sapiens, UniProt P33981); assay: TTK inhibition assay (indirect ELISA); assay type: biochemical; details: read-out: TTK IC50 Range
T2 construct: amino terminal GST fusion of full length human TTK; purchased Invitrogen
T2 sequence (P33981 1-857): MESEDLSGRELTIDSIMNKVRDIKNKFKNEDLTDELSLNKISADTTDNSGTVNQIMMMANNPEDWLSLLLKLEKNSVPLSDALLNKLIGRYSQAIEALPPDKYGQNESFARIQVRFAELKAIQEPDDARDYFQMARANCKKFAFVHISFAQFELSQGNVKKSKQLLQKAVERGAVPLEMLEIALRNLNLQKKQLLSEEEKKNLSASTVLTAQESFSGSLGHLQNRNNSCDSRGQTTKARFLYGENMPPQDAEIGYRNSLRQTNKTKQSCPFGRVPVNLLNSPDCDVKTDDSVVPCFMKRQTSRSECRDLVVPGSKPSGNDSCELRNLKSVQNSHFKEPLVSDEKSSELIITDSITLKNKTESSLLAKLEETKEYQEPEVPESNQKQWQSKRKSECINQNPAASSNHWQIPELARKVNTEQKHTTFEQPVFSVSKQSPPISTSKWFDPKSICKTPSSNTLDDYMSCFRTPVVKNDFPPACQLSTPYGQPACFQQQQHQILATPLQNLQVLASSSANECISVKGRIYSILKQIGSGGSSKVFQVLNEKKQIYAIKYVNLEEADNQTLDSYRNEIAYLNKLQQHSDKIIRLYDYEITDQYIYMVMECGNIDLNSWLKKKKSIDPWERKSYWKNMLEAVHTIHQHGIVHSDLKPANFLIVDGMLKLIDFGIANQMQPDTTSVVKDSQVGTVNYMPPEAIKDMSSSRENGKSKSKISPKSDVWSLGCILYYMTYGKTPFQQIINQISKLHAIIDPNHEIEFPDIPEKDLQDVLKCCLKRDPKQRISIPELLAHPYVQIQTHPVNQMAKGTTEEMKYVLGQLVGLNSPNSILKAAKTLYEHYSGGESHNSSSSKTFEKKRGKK

[1] = test system: colon cancer cells (HCT116); assay: Cancer cell line growth inhibition (SRB assay); assay type: cell-based; details: Homo sapiens, HCT-116; read-out: Cancer Cell Line GI50 Range HCT116
MAPK2 = target: T3, MAPK2 (Homo sapiens, UniProt P28482); assay: Panel of 270 human kinases (Millipore); assay type: biochemical
T3 construct: purchased Millipore Corporation
Description: The inhibitory activity of selected compounds of the invention (A335, A405, A410, A261, A300 and A363) was evaluated against a panel of 270 different human kinase enzymes by Millipore Corporation. The % Inhibition was determined by the formula: % Inhibition=100×(1−(experimental value−background value)/(high activity control−background value)).

TICs (Colon 12) = assay: Colon tumor-initiating cell growth inhibition (Alamar Blue); assay type: cell-based; details: 216 h; Colon 12 TICs, 9 days; read-out: Tumor Initiating Cell GI50 Range Colon 12
Description: Materials and Methods: Non-tissue or tissue cultured treated T-75 flask and 96-well plates were purchased from VWR. Vitamin B-27 supplement, MEM NEAA (minimum essential medium non essential amino acids), sodium pyruvate, L-glutamine, N2 supplement, penicillin-streptomycin and fungizone/amphotericin B were obtained from Invitrogen. Lipid mixture, heparin and EGF were purchased from Sigma; bFGF from BD Biosciences. Tumor Initiating Cells (TICs) from colon were routinely maintained using non-tissue cultured treated T-75 flasks in DMEM:F12 medium containing 0.2×B-27 supplement, 4 ug/ml heparin, 1×MEM NEAA, 1× sodium pyruvate, 1 mM glutamine, 10 pg/ul bFGF, 20 pg/ul EGF, 1×N2 supplement, lipid mixture, penicillin-streptomycin and fungizone/amphotericin B. Ovarian TICs were routinely maintained using tissue cultured treated T-75 flasks in DMEM:F12 medium containing 1×B-27 supplement, 4 ug/ml heparin, 20 pg/ul bFGF, 20 pg/ul EGF and penicillin-streptomycin.
Assay Protocol: Compounds described herein were dissolved in DMSO and further diluted in cell culture medium for GI50 determination. Colon TICs were trypsinized and seeded into non-tissue cultured treated 96-well plates with 4,000 cells/well. After 24 h, compound was added into the cell culture at different concentrations, and the final concentration of DMSO was adjusted to 0.1%. Cells were then cultured at 37° C. for 9 days. Ovarian TICs were trypsinized and seeded into tissue cultured treated 96-well plates with 1,000 cells/well. After 24 h, compound was added into the cell culture at different concentrations, and the final concentration of DMSO was adjusted to 0.1%. Cells were then cultured at 37° C. for 6 days. Cell viability was assessed by Alamar Blue assay: 10 ul of Alamar Blue was added into each well. After 4 hours incubation at 37° C., fluorescence was recorded at excitation 544 and emission 590. GI50 (Growth inhibition) was calculated using GraphPad Prism 4.0 software.

T3 sequence (P28482 whole entry): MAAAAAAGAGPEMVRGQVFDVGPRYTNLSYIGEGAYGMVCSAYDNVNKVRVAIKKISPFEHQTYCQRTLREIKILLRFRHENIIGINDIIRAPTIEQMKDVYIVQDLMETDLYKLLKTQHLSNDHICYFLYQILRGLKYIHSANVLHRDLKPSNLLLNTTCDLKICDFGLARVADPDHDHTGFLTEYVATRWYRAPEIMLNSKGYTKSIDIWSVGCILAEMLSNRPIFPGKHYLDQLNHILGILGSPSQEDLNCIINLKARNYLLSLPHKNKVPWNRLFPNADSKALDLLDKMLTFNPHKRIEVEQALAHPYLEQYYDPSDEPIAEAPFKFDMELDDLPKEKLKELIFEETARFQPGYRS

Structure (SMILES) | IC50 (human PLK4) [nM] | GI50 (Breast cancer cells) [nM] | GI50 (TICs (Ovarian 2393A)) [nM] | IC50 (human TTK) [nM] | GI50 [1] [nM] | inhibition at 1 µM (MAPK2) [%] | GI50 (TICs (Colon 12)) [nM]
CC(C)C[C@@H](NC(=O)c1ccc2[nH]nc(-c3ccc(N4CCN(C5COC5)CC4)cc3)c2c1)c1ccccc1Cl [Example A300, (R)-N-(1-(2-chlorophenyl)-3-methylbutyl)-3-(4-(4-(oxetan-3-yl)piperazin-1-yl)phenyl)-1H-indazole-5-carboxamide] | < 50 | < 100 | 100 to 500 | < 100 | < 100 | 5 | < 100
CC(C)[C@H](NC(=O)c1ccc2[nH]nc(-c3ccc(OC4CC5CCC(C4)N5C4COC4)cc3)c2c1)c1ccccc1Cl (some centres unmarked) [Example A335] | < 50 | 100 to 500 | < 100 | < 100 | < 100 | 0 | < 100
